# ChEMBL document CHEMBL5257026, “Progress and prospects on DENV protease inhibitors” (Eur J Med Chem, 2016)
# Starred links: 1 amine or outer side, 2 acyl side, 3 side chain; linkers in the order of their positions; H or OH if unused. Non-standard residues stand in square brackets, D forms with d. Residues, ends and D or L forms follow the SMILES beside them. *: point of attachment. Arg(ψCOCO) = N=C(N)NCCC[C@H](N[*:1])C(=O)C(=O)[*:2]; Nle = CCCC[C@H](N)C(=O)O; PhAc = O=C(Cc1ccccc1)*; Bz = O=C(c1ccccc1)*
# Legend:
# [1] = Inhibition of DENV4 N-terminally hexa-His tagged NS2B (48 to 95 residues) -NS3 (1 to 184 residues) protease expressed in Escherichia coli XL1 Blue using QXL570-Phe-Ala-Ser-Gly-Lys-Arg-Ser-Gln-Ile-Gly-Leu-Lys(5-TAMRA)-NH2 as substrate and measured for 15 mins by FRET assay; set-up: species or system dengue virus type 4
# [2] = Inhibition of DENV1 N-terminally hexa-His tagged NS2B (48 to 95 residues) -NS3 (1 to 184 residues) protease expressed in Escherichia coli XL1 Blue using QXL570-Phe-Ala-Ser-Gly-Lys-Arg-Ser-Gln-Ile-Gly-Leu-Lys(5-TAMRA)-NH2 as substrate and measured for 15 mins by FRET assay; set-up: species or system dengue virus type 1
# [3] = Inhibition of DENV2 N-terminally hexa-His tagged NS2B (48 to 95 residues) -NS3 (1 to 184 residues) protease expressed in Escherichia coli XL1 Blue using QXL570-Phe-Ala-Ser-Gly-Lys-Arg-Ser-Gln-Ile-Gly-Leu-Lys(5-TAMRA)-NH2 as substrate and measured for 15 mins by FRET assay; set-up: species or system dengue virus type 2
# [4] = Inhibition of DENV3 N-terminally hexa-His tagged NS2B (48 to 95 residues) -NS3 (1 to 184 residues) protease expressed in Escherichia coli XL1 Blue using QXL570-Phe-Ala-Ser-Gly-Lys-Arg-Ser-Gln-Ile-Gly-Leu-Lys(5-TAMRA)-NH2 as substrate and measured for 15 mins by FRET assay; set-up: species or system dengue virus type 3
# [5] = Inhibition of DENV2 recombinant NS2B-NS3 protease expressed in Escherichia coli JM109 using acetyl-TTSTRR-para-nitroaniline as substrate preincubated for 10 mins followed by substrate addition measured after 120 mins by spectrophotometric analysis; set-up: species or system dengue virus type 2
# [6] = Inhibition of DENV2 NS2B-G4-S-G4-NS3 protease using Bz-nKRR-AMC as substrate preincubated for 30 mins followed by substrate addition by fluorescence microplate reader assay; set-up: species or system dengue virus type 2
# [7] = Inhibition of DENV2 recombinant NS2B-NS3 protease expressed in Escherichia coli C41 using GRR-AMC as substrate incubated for 15 mins by Lineweaver-Burk plot analysis; set-up: species or system dengue virus type 2
# [8] = Inhibition of DENV2 NS2B-NS3 protease using Boc-Gly-Lys-Arg-AMC as substrate incubated for 30 mins by fluorescence assay; set-up: species or system dengue virus type 2
# [9] = Inhibition of DENV2 recombinant NS2B-NS3 protease expressed in Escherichia coli JM109 assessed as inhibition constant using acetyl-TTSTRR-para-nitroaniline as substrate preincubated for 10 mins followed by substrate addition measured after 120 mins by spectrophotometric analysis; set-up: species or system dengue virus type 2
# [10] = Inhibition of DENV2 hydrophilic domain of NS2B (48 aminoacids)-NS3 (185 aminoacids) protease using Bz-Nle-Lys-Arg-Arg-AMC as substrate preincubated for 15 mins followed by substrate addition by spectrofluorometeric assay; set-up: species or system dengue virus type 2
# [11] = Inhibition of DENV2 recombinant CF40-glycine fused NS2B-NS3 protease expressed in Escherichia coli SG13009 using Ac-TTSTRR-pNA as substrate preincubated for 50 mins followed by substrate addition by spectrophotometric assay; set-up: species or system dengue virus type 2
# [12] = Inhibition of DENV2 recombinant CF40gly(T)R fused NS2B-NS3 protease expressed in Escherichia coli XL1-Blue MRF using Boc-Gly-Arg-Arg-MCA as substrate incubated for 30 mins by fluorescence spectrophotometeric assay; set-up: species or system dengue virus type 2
# [13] = Inhibition of DENV2 recombinant NS2B-(G4-S-G4)-NS3 protease using Bz-nKRR-AMC as substrate preincubated for 30 mins followed by substrate addition measured after 30 mins by fluorescence spectrophotometric analysis; set-up: species or system dengue virus type 2
# [14] = Inhibition of DENV2 NS2B-NS3 protease expressed in Escherichia coli BL21 (DE3) using Bz-Nle-Lys-Arg-Arg-AMC as substrate preincubated for 30 mins followed by substrate addition by fluorescence plate reader analysis; set-up: species or system dengue virus type 2
structure (smiles),measurement,setting,value
N=C(N)Nc1cc(NC(=N)N)c2ccccc2c1O[C@H]1C[C@@H](O)[C@H](NC(=N)N)C[C@@H]1NC(=N)N,IC50,[1],34 µM
same,IC50,[2],7.9 µM
same,IC50,[3],6 µM
same,IC50,[4],8.6 µM
CCCCCCCCCC[N+](CC)(CC)CCOc1ccc2c(c1)C(=O)c1cc(OCC[N+](CC)(CC)CCCCCCCCCC)ccc1-2,IC50,[5],15.4 µM
Cc1[nH]c2ccccc2c1C(=O)NCc1ccc(CN2CCCC2)cc1,IC50,[6],300 µM
Cc1cc(NC(=O)O[C@@H]2C[C@H](Oc3ccc(NC(=N)N)cc3N=C(N)N)[C@@H](N=C(N)N)C[C@H]2N=C(N)N)ccc1F,IC50,[1],21 µM
same,IC50,[2],2.6 µM
same,IC50,[3],7 µM
same,IC50,[4],8.2 µM
CC(=O)N[C@@H](CCCNC(=N)N)C(=O)N[C@H](C(=O)N[C@@H](CO)C(=O)N[C@@H](CCCCN)C(=O)N[C@@H](CCCCN)C(=O)N[C@@H](CCCNC(=N)N)C(N)=O)[C@@H](C)O (Ac-RTSKKR-NH2),Ki,[7],12.1 µM
Cc1cc(=O)cc2oc3cc(N)c(-c4c(C)cc(O)cc4O)c(C)c3nc1-2,Ki,[8],35 µM
N=C(N)Nc1ccc(O[C@H]2C[C@@H](Oc3ccc(NC(=N)N)cc3NC(=N)N)[C@H](NC(=N)N)C[C@@H]2NC(=N)N)c(NC(=N)N)c1,IC50,[1],11 µM
same,IC50,[2],3 µM
same,IC50,[3],5 µM
same,Ki,[9],15.4 µM
same,IC50,[4],5 µM
Oc1c(C(Cc2nccs2)c2cccc(OCc3ccccc3)c2)ccc2ccccc12 (stereo not drawn),IC50,[10],2.93 µM
CC(=O)N[C@@H](Cc1ccccc1)C(=O)N[C@@H](C)C(=O)N[C@@H](C)C(=O)NCC(=O)N[C@@H](CCCNC(=N)N)C(=O)N[C@@H](CCCNC(=N)N)C(=O)C(=O)N[C@@H](CO)C(=O)N[C@@H](CC(C)C)C(N)=O (Ac-FAAGR[Arg(ψCOCO)]SL-NH2),Ki,[11],47 µM
O=c1cc(-c2ccccc2)oc2ccc(-c3nnn[nH]3)cc12,Ki,[12],69 µM
CCCC[C@H](NC(=O)c1ccccc1)C(=O)N[C@@H](CCCCN)C(=O)N[C@@H](CCCNC(=N)N)C(=O)N[C@H](C=O)CCCNC(=N)N (Bz-[Nle]KRR-aldehyde),IC50,[13],9.5 µM
N=C(N)Nc1ccc(OC(=O)c2ccc(NC(=N)N)cc2)cc1,IC50,[6],7.7 µM
CC(=O)N[C@H](C(=O)N[C@H](C(=O)N[C@@H](CO)C(=O)N[C@H](C(=O)N[C@@H](CCCNC(=N)N)C(=O)N[C@@H](CCCNC(=N)N)C(N)=O)[C@@H](C)O)[C@@H](C)O)[C@@H](C)O (Ac-TTSTRR-NH2),Ki,[7],46 µM
c1ccc2[nH]c(-c3ccc(Nc4nnc(Nc5ccc(-c6nc7ccccc7[nH]6)cc5)c5ccccc45)cc3)nc2c1,IC50,[14],1.1 µM
N=C(N)Nc1ccc(N[C@H]2C[C@@H](NC(=N)N)[C@H](Oc3ccc(NC(=N)N)cc3)C[C@@H]2Oc2ccc(NC(=N)N)cc2)cc1,IC50,[1],12.4 µM
same,IC50,[2],5.3 µM
same,IC50,[3],10 µM
same,IC50,[4],4 µM
Oc1c(C(Cc2nccs2)c2ccccc2OCc2ccccc2)ccc2ccccc12 (stereo not drawn),IC50,[10],2.34 µM
N=C(N)NCCC[C@@H](C=O)NC(=O)[C@H](CCCNC(=N)N)NC(=O)[C@H](CCCCN)NC(=O)Cc1ccccc1 (PhAc-Lys-Arg-Arg-aldehyde),IC50,[13],6.7 µM
N=C(N)Nc1ccc(NC(=O)O[C@H]2C[C@@H](OC(=O)Nc3ccc(NC(=N)N)cc3)[C@H](NC(=N)N)C[C@@H]2NC(=N)N)cc1,IC50,[1],69 µM
same,IC50,[2],10.3 µM
same,IC50,[3],17 µM
same,IC50,[4],18.4 µM
CC(=O)N[C@H](C(=O)N[C@H](C(=O)N[C@@H](CO)C(=O)N[C@H](C(=O)N[C@@H](CCCNC(=N)N)C(=O)N[C@@H](CCCNC(=N)N)C(=O)C(=O)NCC(=O)N[C@H](C(=O)NCC(=O)N[C@@H](CC(N)=O)C(N)=O)[C@@H](C)O)[C@@H](C)O)[C@@H](C)O)[C@@H](C)O (Ac-TTSTR[Arg(ψCOCO)]GTGN-NH2),Ki,[11],368 µM
CCN1/C(=C/C=C/c2oc3ccc4ccccc4c3[n+]2CC)Oc2ccc3ccccc3c21,IC50,[5],27 µM
O=C1C[C@@H](c2ccc3c(c2)OCCO3)Oc2ccccc21,Ki,[12],186 µM
CCN1/C(=C/C=C/c2oc3ccc(-c4ccccc4)cc3[n+]2CC)Oc2ccc(-c3ccccc3)cc21,IC50,[5],20.5 µM
CC(=O)N[C@@H](Cc1ccccc1)C(=O)N[C@@H](C)C(=O)N[C@@H](C)C(=O)NCC(=O)N[C@@H](CCCNC(=N)N)C(=O)N[C@H](C=O)CCCNC(=N)N (Ac-FAAGRR-aldehyde),Ki,[11],16 µM
c1ccc([C@H]2Oc3ccccc3[C@@H]3Oc4ccccc4C[C@H]23)cc1,Ki,[12],510 µM
Oc1c(C(Cc2nc3ccccc3s2)c2cccc(OCc3ccccc3)c2)ccc2ccccc12 (stereo not drawn),IC50,[10],0.91 µM
CC(=O)N[C@H](C(=O)N[C@H](C(=O)N[C@@H](CO)C(=O)N[C@H](C(=O)N[C@@H](CCCNC(=N)N)C(=O)N[C@@H](CCCNC(=N)N)C(=O)C(=O)N[C@@H](CO)C(=O)N[C@@H](CC(C)C)C(N)=O)[C@@H](C)O)[C@@H](C)O)[C@@H](C)O (Ac-TTSTR[Arg(ψCOCO)]SL-NH2),Ki,[11],220 µM
Cc1cc(C)c2c(c1)O[C@@H](c1ccc(N(C)C)cc1)CC2=O,Ki,[12],121 µM
O=C(Nc1cccs1)c1ccccc1Sc1ccc([N+](=O)[O-])cc1,IC50,[5],98 µM
N=C(N)Nc1ccccc1O[C@H]1C[C@@H](Oc2ccccc2NC(=N)N)[C@H](NC(=N)N)C[C@@H]1NC(=N)N,IC50,[1],55 µM
same,IC50,[2],8.8 µM
same,IC50,[3],32 µM
same,IC50,[4],17 µM
N=C(N)Nc1ccc(O[C@H]2C[C@H](F)[C@H](NC(=N)N)C[C@@H]2NC(=N)N)c(NC(=N)N)c1,IC50,[1],53 µM
same,IC50,[2],8.8 µM
same,IC50,[3],20.5 µM
same,IC50,[4],17.2 µM
N#Cc1ccc(OC(=O)c2ccc(NC(=N)N)cc2)cc1,IC50,[6],37.9 µM
O=C(Nc1nc2ccc([N+](=O)[O-])cc2s1)c1ccccc1Sc1ccc(C(F)(F)F)cc1,IC50,[5],22 µM
CC(=O)N[C@@H](CO)C(=O)N[C@@H](CCCCN)C(=O)N[C@@H](CCCCN)C(=O)N[C@@H](CCCNC(=N)N)C(N)=O (Ac-SKKR-NH2),Ki,[7],188 µM
O=C(Nc1nc2cc(O)c(O)cc2s1)c1ccccc1Sc1ccc(C(F)(F)F)cc1,IC50,[5],3.6 µM
N=C(N)Nc1ccc(O[C@H]2C[C@@H](Oc3ccc(NC(=N)N)cc3)[C@H](NC(=N)N)C[C@@H]2NC(=N)N)cc1,IC50,[1],20 µM
same,IC50,[2],5 µM
same,IC50,[3],10.9 µM
same,IC50,[4],9 µM
CC(=O)N[C@@H](CCCCN)C(=O)N[C@@H](CCCNC(=N)N)C(N)=O (Ac-Lys-Arg-NH2),Ki,[7],122 µM
O=C(Nc1nc2ccc([N+](=O)[O-])cc2s1)c1ccccc1Sc1ccc([N+](=O)[O-])cc1,IC50,[5],34 µM
CC(=O)N[C@@H](CCC(=O)O)C(=O)N[C@H](C(=O)N[C@@H](CCCCN)C(=O)N[C@@H](CCCCN)C(=O)N[C@@H](CCC(N)=O)C(=O)N[C@@H](CCCNC(=N)N)C(N)=O)C(C)C (Ac-EVKKQR-NH2),Ki,[7],66.7 µM
N=C(N)NCCC[C@@H](C=O)NC(=O)[C@H](CCCCN)NC(=O)[C@H](CCCCN)NC(=O)Cc1ccccc1 (PhAc-Lys-Lys-Arg-aldehyde),IC50,[13],167 µM
CC1CNC(c2ccc(Nc3nnc(Nc4ccc(C5=NC(C)CN5)cc4)c4ccccc34)cc2)=N1 (stereo not drawn),IC50,[14],8.9 µM
CC(=O)N[C@@H](Cc1ccccc1)C(=O)N[C@@H](C)C(=O)N[C@@H](C)C(=O)NCC(=O)N[C@@H](CCCNC(=N)N)C(=O)N[C@@H](CCCCN)C(N)=O (Ac-FAAGRK-NH2),Ki,[7],25.9 µM
Oc1c(C(Cc2nc3ccccc3s2)c2ccccc2OCc2ccccc2)ccc2ccccc12 (stereo not drawn),IC50,[10],3.67 µM
N=C(N)Nc1ccc(O[C@H]2C[C@@H](O)[C@H](NC(=N)N)C[C@@H]2NC(=N)N)c(NC(=N)N)c1,IC50,[1],57 µM
same,IC50,[2],9.7 µM
same,IC50,[3],15 µM
same,IC50,[4],20 µM
CC(=O)N[C@@H](CCCCN)C(=O)N[C@@H](CCCCN)C(=O)N[C@@H](CCCNC(=N)N)C(N)=O (Ac-Lys-Lys-Arg-NH2),Ki,[7],22.3 µM
CC(=O)NCC(=O)N[C@@H](CCCCN)C(=O)N[C@@H](CCCNC(=N)N)C(N)=O (Ac-Gly-Lys-Arg-NH2),Ki,[7],152 µM
